Experimental data from ChEMBL document CHEMBL3997852, “Discovery of Fluorine-Containing Benzoxazinyl-oxazolidinones for the Treatment of Multidrug Resistant Tuberculosis” (ACS Med Chem Lett, 2017).
Values after ≈ are worked out from the molar mass of the structure shown.

How the values were obtained:
[1] = tested on: Mycobacterium tuberculosis; assay: Antitubercular activity against isoniazid/rifampicin/streptomycin/ethambutol/levofloxacin-resistant Mycobacterium tuberculosis 16802 clinical isolate after 7 days by microplate alamar blue assay; type: functional; details: Mycobacterium tuberculosis, 16802, 168 h
[2] = tested on: Mycobacterium tuberculosis; assay: Antitubercular activity against isoniazid/rifampicin-resistant Mycobacterium tuberculosis 16892 clinical isolate after 7 days by microplate alamar blue assay; type: functional; details: Mycobacterium tuberculosis, 16892, 168 h

SMILES	MIC90 [1] [µg/mL]	MIC90 [2] [µg/mL]
O=C(NC[C@@H]1OC(=O)N2c3cc(F)c(C4=CCN(CCO)CC4)cc3OC[C@@H]12)C1CC1	1 (≈ 2.32 µM)	0.5 (≈ 1.16 µM)
CC(=O)NC[C@@H]1OC(=O)N2c3cc(F)c(C4=CCN(CCO)CC4)cc3OC[C@@H]12	2 (≈ 4.93 µM)	0.5 (≈ 1.23 µM)
CC(=O)NC[C@@H]1OC(=O)N2c3cc(F)c(C4=CCN(C(=O)CO)CC4)cc3OC[C@@H]12	0.5 (≈ 1.19 µM)	0.25 (≈ 0.596 µM)
CC(=O)NC[C@@H]1OC(=O)N2c3cc(F)c(C4=CCN(C(=O)[C@@H](O)CO)CC4)cc3OC[C@@H]12	1 (≈ 2.23 µM)	0.25 (≈ 0.556 µM)
CC(=O)NC[C@@H]1OC(=O)N2c3cc(F)c(C4=CCN(C(=O)CN)CC4)cc3OC[C@@H]12.Cl	2	0.25
NNC(=O)c1ccncc1 [ISONIAZID]	2.5 (≈ 18.2 µM)	> 40
CO[C@H]1/C=C/O[C@@]2(C)Oc3c(C)c(O)c4c(O)c(c(/C=N/N5CCN(C)CC5)c(O)c4c3C2=O)NC(=O)/C(C)=C\C=C\[C@H](C)[C@H](O)[C@@H](C)[C@@H](O)[C@@H](C)[C@H](OC(C)=O)[C@@H]1C [RIFAMPIN]	20 (≈ 24.3 µM)	> 40
